From patent US6103888A, “Mammalian cationic proteins having lipopolysaccharide binding and anti-coagulant activity” (priority 1999, dated 2000)
Several values for one entry are separate records, joined by “and”; a condition that tells them apart may be missing. Equal values may be shown once.

Legend:
human mononuclear cells = assay: LPS-induced tissue factor by human mononuclear cells (clotting assay); type: cell-based
Method: Human mononuclear cells were separated from citrated peripheral blood by centrifugation over Sodium-metrizoate-Ficoll (lymphocyte Separation Medium, Japan Antibody Institute, Gumma). The resulting mixed mononuclear cell suspension was washed 3 times with RPMI 1640 media. Cell suspension (1×10^6 /ml) was stimulated with LPS for 16 to 18 hr.
Veronal buffered saline (VBS) was added to the cell pellet, lysed by 3 cycles of freeze/thaw and sonicated for 10 sec with a hand-held sonicator microbe (Handy Sonic, model UR-20P, Tomy Seiko LTD, Tokyo). Tissue factor activity was tested in modified unactivated partial thromboplastin time (7). One tenth ml of cell lysate (1×10^6 /ml) was preincubated with mouse plasma at 37° C. for 3 min. Then 0.1 ml of 25 mM-CaCl2 which contains phospholipid was added to the mixture and clotting time was measured using a fibrometer (Bio Quest Division, Becton Dickinson, Cokeysville, USA). A standard curve obtained from serial two-fold dilutions of rabbit brain thromboplastic (Simplastin, Ono Pharmaceutical Co.) was used to transpose tissue factor activity into arbitrary tissue factor units (1 μg/ml) suspension of rabbit brain was assigned a value of 1,000 units).
The mean tissue factor units+standard error was determined from three to four samples. Student's t test for unpair data was used to determine the statistically significant differences. A two-tailed P value of <0.05 was considered significant. […]

E. coli O9:K39 K- strain = assay: Antibacterial CFU assay
[1] = LPS 0.1 μg/ml, peptide HA units: RNIP 2, CAP-18 1, HP-1 4, HP-2 2

RNIP: rabbit reactive nitrogen inhibitory protein, amino acids 135-171 of SEQ ID NO:4; purified from granulocytes (Tables 1-3) or synthetic (#197) (GLRKRLRKFRNKIKEKLKKIGQKIQGLLPKLAPRTDY)
Inhibition (%) (human mononuclear cells; [1]): 51% and 41%
Tissue Factor Units, value in parentheses (ratio to unstimulated control) (human mononuclear cells; [1]): 9.0
Δ Units (%) (human mononuclear cells; LPS 0.1 μg/ml, relative to LPS alone (100), 960 min): 49% and 59%
Tissue Factor Units, value in parentheses (ratio to unstimulated control) (human mononuclear cells; no LPS, peptide alone): 1.3
Tissue factor units (human mononuclear cells; no LPS, peptide alone): 636 ± 141 Units ×10^3 /3.6 × 10^4 cells
Δ Units (human mononuclear cells; no LPS, peptide alone): 144 Units
IC50, anti-bacterial activity (E. coli O9:K39 K- strain): 0.68 µg/mL
IC50 (E. coli O9:K39 K- strain; read-out: IC50, anti-bacterial activity): 110 nM
